From a melting point compilation (Tetko et al.; mined from patent text by program, amines drawn as free bases though some values may be those of a salt) come the findings set out here.

SMILES strings stand for the structures.

As for `Oc1ccccc1-c1nc(-c2ccccc2O)nc(-c2ccccc2O)n1`, the melting point fell in the range of 147 to 149 °C. `Fc1cc(F)cc(-c2cccc3[nH]c4c(c23)CCN(Cc2ccccc2)CC4)c1` came in with a melting point of 172 to 175 °C. `CN1CCC(c2nn(C(=O)c3ccc(F)cc3)c3ccccc23)CC1` yielded a melting point of 132 to 133 °C. `CC(C)(C)CC(C)(C)c1ccc(Oc2cc3nc(-c4ccccc4)oc3cc2[N+](=O)[O-])cc1` showed a melting point of 183 to 185 °C. For the molecule `N=C(N)SCCc1ccc(Cl)c(Cl)c1`, the melting point was 135 to 139 °C. `COc1ccc(N2CCN(c3c(C)c(C)c4c(c3C)C(c3ccccn3)C(C)(C)O4)CC2)cc1` (stereo not drawn): the melting point is 123 to 125 °C.

`CCOC(=O)c1sc(C)nc1Oc1cccc(C(F)(F)F)c1` had a melting point of 56 °C.

Take `CS(=O)(=O)Nn1c(=O)[nH]c2cc(C(F)(F)F)c(C3CCCO3)cc2c1=O` (stereo not drawn): the melting point is 254 to 257 °C. The result for `CC(=O)c1cc(C)ccc1OCCCN1CCC(c2noc3cc(F)ccc23)CC1` reads 92 to 93 °C; that for `COC1(C)CSC2C(NC(=O)Cc3ccccc3)C(=O)N2C1C(=O)OCC(Cl)(Cl)Cl` (stereo not drawn), 132 to 133 °C; that for `CC(C)OC(=O)c1cc(-n2c(=O)c(F)c(C(F)(F)F)n(C)c2=O)c(F)cc1Cl`, 66 to 68 °C.

`COc1cc2ncnc(NNC(N)=O)c2cc1OC` had a melting point of 247 to 249 °C. The value for `CCOC(=O)Cn1c(C(=O)NCc2nnc3n2-c2sc(CC)cc2C(c2ccccc2Cl)=NC3)cc2ccccc21` was 215 to 217 °C; that for `COC(=O)[C@H](Cc1cccc2ccccc12)NC(=O)[C@H](CC(=O)OC(C)(C)C)NC(=O)c1cccc(NC(=O)OCc2ccccc2)c1` was 95 to 98 °C. As for `COc1csc(C)c1N`, the melting point lay in the range of 61 to 63 °C. The result for `COc1ccc(Cl)cc1-c1c(N)c(=O)[nH]c2cc(Cl)cc(Cl)c12` reads 284 to 287 °C.

As for `CC(C)(C)OC(=O)N1CCN(c2ccc(Nc3ncc4ccc(N)nc4n3)cc2)CC1`, the melting point lay in the range of 219 to 220 °C.

Regarding `O=C(O)CP(=O)(O)CCCCc1ccccc1`, the melting point came out at 110 °C. The result for `CC(C)C(O)CCC(C)C1CCC2C3CC(O)C4CC(O)CCC4(C)C3CCC12C` (stereo not drawn) reads 169 to 173 °C; that for `Oc1cc2c(cc1O)OCC(c1cccc(C(F)(F)F)c1)C2` (stereo not drawn), 139 to 141 °C. Take `O=C(Nc1ccc2[nH]c(=O)oc2c1)C(=O)N1CCC(Cc2ccc(F)cc2F)CC1`: the melting point came to 191 °C. The value for `O=C(NCC12CC3CC(CC(C3)C1)C2)c1cccc([N+](=O)[O-])c1Cl` was 185 °C; that for `Cn1ncnc1COc1nn2cnnc2cc1-c1ccsc1` was 220 to 222 °C. `CN(Cc1ccc(NC(=O)C2=Cc3cc(-c4ccc(Cl)cc4)ccc3S(=O)(=O)CC2)cc1)C1CCOCC1` yielded a melting point of 247 to 250 °C.

`C=CCOC(=O)C1CC(=O)N(C2CC(C)(C)N(C)C(C)(C)C2)C1` (stereo not drawn) had a melting point of 48 to 49 °C.

`COC(=O)Cc1c(Cl)nc(C)nc1Cl` yielded a melting point of 67 to 68 °C.

With `COc1cc(C(=O)O)cc(OC)c1Cl`, the melting point lay within 102 to 103 °C. The result for `CC(C)(C)C(=O)c1occc1C(=O)O` reads 85 to 89 °C; that for `CCOC(=O)C1=C(C)NC(N=CN(C)C)=C(C(=O)OCC)C1c1ccccc1` (stereo not drawn), 131 °C; that for `NC(=O)C1(c2ccc(C#Cc3ccccc3)cc2)CC1`, 174 to 176 °C.

With `COC(=O)c1sccc1S(=O)(=O)NC(=O)Nc1nc(C)nc(C)n1`, the melting point was 158 to 178 °C.

As to `O=C(O)C(O)C1CCN(Cc2ccccc2)C1` (stereo not drawn), the melting point was 174 to 176 °C. As for `COC(=O)Nc1ccc(C(=O)OC)nc1`, the melting point lay in the range of 211 to 213 °C. The result for `CN(C)C(=NC(=Nc1ccccc1)N1CCOCC1)N(C)C` reads 115 to 119 °C; that for `Cc1nc2ccc(Cl)cc2n2c(-c3ccccc3Cl)nnc12`, 209 °C.

`CC(C)(C)c1cc(C2N(c3ccccc3)CCN2c2ccccc2)cc(C(C)(C)C)c1O` yielded a melting point of 144 °C. In the case of `COc1ccc2c(c1)cc(-c1nc(C)no1)n2-c1ccc(CNC(=O)C2(N)CC2)cc1`, the melting point fell in the range of 145 to 146 °C. For `COCc1noc(-c2ncn3c2c(=O)n(C(C)C)c2ccccc23)n1`, the melting point is 195 to 196 °C. The value for `O=C1NC(=O)C(=Cc2ccc(N3CCC4(CC3)OCCO4)c(F)c2)S1` was 159 to 160 °C. Regarding `COc1cc2c(c(Cl)c1Cl)S(=O)(=O)C(c1ccccc1)=C2C`, the melting point lay within 197 to 199 °C.

In turn, `COc1cc(C(=O)NCC2c3ccccc3CC(C)N2C(=O)c2ccccc2)cc(OC)c1OC` (stereo not drawn) displayed a melting point of 160 to 162 °C. `Cc1cc(-n2cnn(Cc3ccc(S(C)(=O)=O)cc3)c2=O)sc1C(=O)NCc1cccnc1`: the melting point lay in the range of 208 to 210 °C. The molecule `Cc1cccc(Nc2cc(Nc3ccc(OCC(=O)N(C)C)c(Cl)c3)ncn2)c1` yielded a melting point of 190 to 193 °C. In the case of `O=C(O)c1ccc(-c2ccc(Cl)cc2)cc1`, the melting point was in the range of 191 to 192 °C.

Regarding `CCOC(=O)c1nc(-c2ccc(OCc3ccccc3)cc2)[nH]c1-c1ccc(C)cc1`, the melting point was in the range of 168 to 170 °C. The value for `NS(=O)(=O)c1cc(C(=O)c2csc3ccccc23)ccc1Cl` was 154 to 156 °C; that for `CCCCc1ccc(N=C2NCCCN2)cc1` was 116 to 119 °C; that for `CCOC(=O)c1ccc(-c2c(Cl)c(CCl)nc3sc4c(c23)CCN(C(=O)OCc2ccccc2)C4)cc1` was 123 to 124 °C. `C=CCc1c(SC(C)=O)[nH]c(-c2ccc(Cl)cc2)c1-c1ccc(Cl)cc1` gave a melting point of 131 to 132 °C. Turning to `Cc1c(-c2ccccc2)oc2c(S(=O)(=O)NCCO)cccc2c1=O`, the melting point is 186 to 187 °C.

`COc1cc(O)c2c(=O)c3c(oc2c1)oc1cc(O)ccc13` came in with a melting point of 265 to 268 °C. In the case of `CCC(=CC(CSc1nnnn1-c1ccccc1)=NO)C(C)[N+](=O)[O-]` (stereo not drawn), the melting point fell in the range of 66 to 69 °C. The value for `CN(C)CCCNS(=O)(=O)c1cccc(N)c1` was 89 to 93 °C. Take `N#Cc1nn(-c2c(Cl)cc(C(F)(F)F)cc2Cl)cc1SC(F)(F)F`: the melting point lay within 126 to 128 °C. The result for `CCOC(=O)C(C)Oc1ccc(Nc2ccc(C(F)(F)F)cc2[N+](=O)[O-])cc1` (stereo not drawn) reads 61 to 63 °C; that for `O=S(=O)(NCc1ccc(O)cc1)c1ccc(Cl)cc1`, 187 to 189 °C; that for `CCCC(CCOc1c(-c2ccc(S(C)(=O)=O)cc2)cnn(-c2ccc(F)cc2)c1=O)SC` (stereo not drawn), 90 to 92 °C. Molecule `NC(=O)CNC(=O)c1cccc(-c2cccc3sc(Cc4ccc(F)c(F)c4)cc23)c1` showed a melting point of 160 to 161 °C. On to `Cc1c(C)c(C2CC(=O)C=C(O)C2)c(C)c2c1CC(C)(C)O2` (stereo not drawn), for which the melting point lay in the range of 121 to 123 °C.

`O=C(C=P(c1ccccc1)(c1ccccc1)c1ccccc1)COc1ccccc1Cl` showed a melting point of 107 to 109 °C. Molecule `O=C(Cl)c1c(Cl)c(Cl)c(Cl)c2c(Cl)c(Cl)c(Cl)c(Cl)c12` had a melting point of 163 to 165 °C. As for `Cc1cc(OCCN2CCc3ccc(NS(C)(=O)=O)cc3CC2)ccc1NS(C)(=O)=O`, the melting point is 173 to 174 °C. In turn, `O=[N+]([O-])c1ccc2nc(Cl)[nH]c2c1` displayed a melting point of 235 to 237 °C. The value for `N#CCCNNC(=S)c1ccc(OCc2ccccc2)cc1` was 135 °C. `CN1C(=S)N(c2ccc(Cl)c(Cl)c2)C(O)C1O` (stereo not drawn) yielded a melting point of 115 to 117 °C. Regarding `Cc1ccn(-c2ccc(C(=O)N3Cc4ccc(C)n4Cc4ccccc43)c(Cl)c2)n1`, the melting point was in the range of 178 to 180 °C. `COc1ccccc1NC(=O)Nc1nc(Nc2ccccc2-c2ccccc2)nc(N(CCC(=O)O)Cc2ccc(F)cc2)n1`: the melting point was determined as 108 °C.

`O=C(O)c1cnc(NC(=O)C(CC2CCCC2)c2ccc(Cl)c(Cl)c2)s1` (stereo not drawn) came in with a melting point of 269 to 270 °C. For the molecule `CC(C)(C)C1=CCC(C(=O)O)CC1` (stereo not drawn), the melting point fell in the range of 141 to 143 °C. `CCC(C)(C)N1C(=O)C2(COc3cc4c(cc32)CCO4)c2ccccc21` (stereo not drawn) displayed a melting point of 128 to 129 °C. The molecule `O=C(CC1(c2ccccc2)CCC1)C(=O)Nc1ccc2c(c1)COC2=O` registered a melting point of 142 to 146 °C. Take `O=C(NCCN1CCOCC1)Nc1nc2ccc(OC(c3c(Cl)cccc3Cl)C(F)(F)F)cc2s1` (stereo not drawn): the melting point fell in the range of 150 to 160 °C. For `CCOCCNC(=O)c1cc2c(nc(C)n2C)c2c1CCC1(Cc3ccccc3C1)N2`, the melting point was 180 to 181 °C.

With `Cc1cc(=O)n(-c2cc(C(=O)OC(C)C)c(C#N)cc2F)c(=O)n1C`, the melting point was 188 to 200 °C.

With `C1CNCCNCCNCCNCCNC1`, the melting point is 109 to 110 °C. Turning to `O=C1C(=O)c2ccccc2C2=C1SCC1(CCN(CCOc3ccc(Cl)cc3)CC1)O2`, the melting point lay in the range of 131 to 133 °C. For the molecule `NC(=O)c1[nH]cnc1OC(=O)C=Cc1cccc([N+](=O)[O-])c1`, the melting point is 197 °C. The result for `COc1ccc(-n2nc(Sc3ccc(C)cc3C)c(C)c(C#N)c2=O)cc1` reads 166 to 168 °C.

In turn, `Cc1cccc(C)c1NC(C)C(=O)O` (stereo not drawn) came in with a melting point of 178 to 180 °C.

Take `COc1ccc(S(=O)(=O)CC(O)(CS(=O)(=O)c2ccc(F)cc2)C(=O)NO)cc1` (stereo not drawn): the melting point was 85 to 90 °C. Consider `CC(C)OC(=O)c1cc(-c2nn(C)c(C(F)(F)F)c2CF)c(F)cc1Cl`, for which the melting point was 74 °C. The molecule `CCCCCCCC(=O)NCCCCOS(C)(=O)=O` showed a melting point of 59 to 60 °C. Molecule `CCCCCCCCC(O)C(=O)NCCSSCCNC(=O)C(O)CCCCCCCC` (stereo not drawn) displayed a melting point of 180 to 183 °C.

Molecule `Cc1ccc(-c2ccccc2-c2n[nH]c(C(c3ccccc3)(c3ccccc3)c3ccccc3)n2)cc1` returned a melting point of 120 to 122 °C. With `CC1=C(Cn2ccnc2)CCc2ccc(C(=O)O)cc21`, the melting point was 278 to 280 °C. In turn, `O=C(NCCc1ccc([N+](=O)[O-])cc1)C(F)(F)F` registered a melting point of 96 to 97 °C. The molecule `NCCc1cccc(N2CCN(c3ccc(CCC(=O)O)cc3)C2=O)c1` had a melting point above 250 °C.

On to `CC1CCCc2cc([N+](=O)[O-])cnc21` (stereo not drawn), for which the melting point is 61 to 63 °C.

In general, melting point refers to the temperature of the solid-liquid transition.
